System: H3K4me3 at known PRDM9 binding loci and control TSS loci
Assay: ChIP-qPCR of H3K4me3 in PRDM9-transfected HEK293T cells
Format: cell-based, human
Conditions: for H3K4me3 ChIP-qPCR 2^-dCq (IP-Input) / 2^-dCq (H3K4me3 IP relative to H3): Replicate 2; for H3K4me3 ChIP-qPCR 2^-dCq (IP-Input): H3K4me3 antibody relative to H3; for <Cq>: mean of two wells, Antibody H3K4me3, Plasmid PRDM9WT, Figure 7 Replicate 2
Method: ChIP-qPCR assays were then conducted on known PRDM9 binding loci[26]. Ectopic expression of PRDM9^WT increased trimethylation of H3K4 (H3K4me3) at previously described PRDM9-specific intragenic and intergenic regions[26] (Fig. 7; Supplementary Fig. 12). […] The observed increases in H3K4me3 levels at intragenic and intergenic regions are therefore due directly to PRDM9 PR domain-dependent methylation activity, rather than through recruitment of other H3K4 methyltransferases or other indirect mechanisms.
ChIP qPCR analyses of H3K4me3 methylation levels of known PRDM9-bound loci and control loci. […] Concentrations used (µM) are indicated below each plot. (a–d) represent reported loci of PRDM9 methylation; (e, f) are transcriptional start sites (TSSs) which are not known loci of PRDM9 methylation. Data are normalized to total H3 and are presented as the mean ± upper and lower limits from two replicates. Representative plots of two independent experiments are shown in this figure. The coordinates and the genomic features associated with the assayed loci are indicated above each plot. Left Tailed Student's t-tests were performed by comparing DMSO (0 µM) treated cells to compound treated cells that have been transfected with the same plasmids. *p-value < 0.05 and **p-value < 0.01. Note that here we show a representative of two independent experiments (mean ± s.d of technical replicates) for our ChIP-qPCR experiments. Data obtained using this technique are inherently noisy due to stochastic differences in gene activity/histone positioning. Data are thus typically presented as representative rather than averaged. Source data are provided as a Source Data file.
HEK293T cells were transfected with 37.5 μg empty pcDNA3.1(+) vector (Invitrogen), or the same vector expressing either wild-type PRDM9 (PRDM9^WT) or a catalytically dead PRDM9 mutant (PRDM9^Mut) and 75 μL of Lipofectamine 2000 (Invitrogen) in 6 mL of Opti-MEM (GIBCO) for 48 h. […] ChIP assays were then performed as previously described. Briefly, cells were fixed in 1% formaldehyde and the fixation reaction was quenched in a final concentration of 0.1 M glycine. Cell pellets were first lysed in LB1 (50 mM HEPES-KOH pH 7.5, 140 mM NaCl, 1 mM EDTA, 10% Glycerol, 0.5% Igepal, 0.25% TritonX), washed once in LB2 Buffer (10 mM Tris-HCl pH 8, 200 mM NaCl, 1 mM EDTA, 0.5 mM EGTA) and finally sonicated in LB3 buffer (10 mM Tris-HCl pH 8, 100 mM NaCl, 1 mM EDTA, 0.5 mM EGTA, 0.1% Sodium deoxycholate, 0.5% N-laurosylsarcosine) using a bioruptor (Diagenode). Thereafter, 50 μg of chromatin was subjected to ChIP using the following antibodies purchased from Abcam: α-H3K4me3 (1:200, ab8580, lot:GR3207339-1) and α-H3 (1:250, ab1791, lot:GR300978-4). After extensive washing in RIPA wash buffer (50 mM HEPES-KOH pH 7.6, 100 mM LiCl, 1 mM EDTA, 1% Igepal, 0.7% Sodium Deoxycholate), DNA was eluted from beads. The eluted DNA was treated with RNase A and Proteinase K and purified using the QIAGEN PCR purification kit. qPCR was then carried out targeting the indicated loci (Supplementary Table 3). Upper and lower limits were defined by |2^−(dCq±s) − 2^−(∆Cq)|, where s = √((Standard deviation of Input Cq)^2 + (Standard deviation of Target Cq)^2). […]
formation. ChIP qPCR analyses of H3K4me3 methylation levels at known PRDM9-bound and control loci. Cells transfected with empty vector (negative control) or vectors overexpressing either wild-type PRDM9 (PRDM9 WT) or catalytically dead PRDM9 (PRDM9 MUT) were […]
Panels a-d represent reported loci of […]
(1 picture or pasted object on this page, not shown here)
PRDM9 methylation; e-f are TSSs which are not known sites of PRDM9 methylation. Data are normalized to total H3 and are presented as the mean ± upper and lower limits from two […]

COc1cc(OC)cc(-c2noc(N3CCN(C)C4(CCN(c5ccnc(C)c5)CC4)C3)n2)c1 [MRK-740]
H3K4me3 ChIP-qPCR 2^-dCq (IP-Input) (chr2:40281930-40282015 Intragenic (SLC8A1-AS1), Figure 7 C, PRDM9WT, Drug Conc. 10): 2.181
2^-dCq (H3K4me3 IP relative to H3) (chr2:40281930-40282015 Intragenic (SLC8A1-AS1), Empty Vector, Drug Conc. 5, Figure S12 C): 0.9795
2^-dCq (H3K4me3 IP relative to H3) (chr2:40281930-40282015 Intragenic (SLC8A1-AS1), PRDM9MUT, Drug Conc. 5, Figure S12 C): 0.2048
2^-dCq (H3K4me3 IP relative to H3) (chr2:40281930-40282015 Intragenic (SLC8A1-AS1), PRDM9WT, Drug Conc. 5, Figure S12 C): 5.934
H3K4me3 ChIP-qPCR 2^-dCq (IP-Input) (chr2:128811847-128811944 (Intergenic), Figure 7 A, Empty Vector, Drug Conc. 2.5): 1.167
H3K4me3 ChIP-qPCR 2^-dCq (IP-Input) (chr2:128811847-128811944 (Intergenic), Figure 7 A, Empty Vector, Drug Conc. 5): 1.563
H3K4me3 ChIP-qPCR 2^-dCq (IP-Input) (chr2:128811847-128811944 (Intergenic), Figure 7 A, Empty Vector, Drug Conc. 10): 1.267
H3K4me3 ChIP-qPCR 2^-dCq (IP-Input) (chr2:128811847-128811944 (Intergenic), Figure 7 A, PRDM9WT, Drug Conc. 2.5): 4.007
H3K4me3 ChIP-qPCR 2^-dCq (IP-Input) (chr2:128811847-128811944 (Intergenic), Figure 7 A, PRDM9WT, Drug Conc. 5): 4.852
H3K4me3 ChIP-qPCR 2^-dCq (IP-Input) (chr2:128811847-128811944 (Intergenic), Figure 7 A, PRDM9WT, Drug Conc. 10): 1.932
2^-dCq (H3K4me3 IP relative to H3) (chr2:128811847-128811944 (Intergenic), Empty Vector, Drug Conc. 5, Figure S12 A): 1.563
2^-dCq (H3K4me3 IP relative to H3) (chr2:128811847-128811944 (Intergenic), PRDM9MUT, Drug Conc. 5, Figure S12 A): 0.3928
2^-dCq (H3K4me3 IP relative to H3) (chr2:128811847-128811944 (Intergenic), PRDM9WT, Drug Conc. 5, Figure S12 A): 4.852
2^-dCq (H3K4me3 IP relative to H3) (chr3:165514798-165514911 Intragenic (BCHE), Empty Vector, Drug Conc. 5, Figure S12 D): 0.9187
2^-dCq (H3K4me3 IP relative to H3) (chr3:165514798-165514911 Intragenic (BCHE), PRDM9MUT, Drug Conc. 5, Figure S12 D): 0.2392
2^-dCq (H3K4me3 IP relative to H3) (chr3:165514798-165514911 Intragenic (BCHE), PRDM9WT, Drug Conc. 5, Figure S12 D): 7.878
H3K4me3 ChIP-qPCR 2^-dCq (IP-Input) (chr8:49932778-49932856 (Intergenic), Figure 7 B, Empty Vector, Drug Conc. 2.5): 0.8281
H3K4me3 ChIP-qPCR 2^-dCq (IP-Input) (chr8:49932778-49932856 (Intergenic), Figure 7 B, Empty Vector, Drug Conc. 5): 1.029
H3K4me3 ChIP-qPCR 2^-dCq (IP-Input) (chr8:49932778-49932856 (Intergenic), Figure 7 B, Empty Vector, Drug Conc. 10): 0.9528
H3K4me3 ChIP-qPCR 2^-dCq (IP-Input) (chr8:49932778-49932856 (Intergenic), Figure 7 B, PRDM9WT, Drug Conc. 2.5): 8.6274
H3K4me3 ChIP-qPCR 2^-dCq (IP-Input) (chr8:49932778-49932856 (Intergenic), Figure 7 B, PRDM9WT, Drug Conc. 5): 4.182
H3K4me3 ChIP-qPCR 2^-dCq (IP-Input) (chr8:49932778-49932856 (Intergenic), Figure 7 B, PRDM9WT, Drug Conc. 10): 1.779
2^-dCq (H3K4me3 IP relative to H3) (chr8:49932778-49932856 (Intergenic), Empty Vector, Drug Conc. 5, Figure S12 B): 1.029
2^-dCq (H3K4me3 IP relative to H3) (chr8:49932778-49932856 (Intergenic), PRDM9MUT, Drug Conc. 5, Figure S12 B): 0.2948
2^-dCq (H3K4me3 IP relative to H3) (chr8:49932778-49932856 (Intergenic), PRDM9WT, Drug Conc. 5, Figure S12 B): 4.182
2^-dCq (H3K4me3 IP relative to H3) (chr12:6643945-6644023 TSS (GAPDH), Empty Vector, Drug Conc. 5, Figure S12 E): 83.0384
2^-dCq (H3K4me3 IP relative to H3) (chr12:6643945-6644023 TSS (GAPDH), PRDM9MUT, Drug Conc. 5, Figure S12 E): 72.3311
2^-dCq (H3K4me3 IP relative to H3) (chr12:6643945-6644023 TSS (GAPDH), PRDM9WT, Drug Conc. 5, Figure S12 E): 130.72
2^-dCq (H3K4me3 IP relative to H3) (chr19:8510167-8510261 TSS (HNRNPM), Empty Vector, Drug Conc. 5, Figure S12 F): 107.435
2^-dCq (H3K4me3 IP relative to H3) (chr19:8510167-8510261 TSS (HNRNPM), PRDM9MUT, Drug Conc. 5, Figure S12 F): 76.5131
2^-dCq (H3K4me3 IP relative to H3) (chr19:8510167-8510261 TSS (HNRNPM), PRDM9WT, Drug Conc. 5, Figure S12 F): 143.684
<Cq> (Drug Conc. 2.5): 20.8229
<Cq> (Drug Conc. 5): 20.8538
<Cq> (Drug Conc. 10): 21.2288
